Test results: PMC11783601, “Analogue-Sensitive Inhibition of Histone Demethylases Uncovers Member-Specific Function in Ribosomal Protein Synthesis” (Journal of the American Chemical Society, 2025)

Legend:
endogenous 2OG enzymes = assay: Effect of 6A/B on post-translational/post-synthetic modifications in HEK293T cells (Western blot, dot blot); assay type: cell-based, human
Description: To test the orthogonality of NOL toward wild type KDM4A, HEK293T cells, either nontransfected or transfected with KDM4A, were individually treated with DMSO, 400 μM 6A or 10 μM n-octyl IOX1, a nonspecific inhibitor of 2OG enzymes. […] To further probe for off-target effects of 6 on endogenous 2OG enzymes, HEK293T cells were cultured with DMSO or 400 μM 6A and examined for several postsynthetic modifications catalyzed by these dioxygenases. Key trimethylated lysine marks on extracted histone were analyzed by Western blot using corresponding antibodies (Figure S31). […] Similarly, no change in prolyl hydroxylation was detected when cellular extracts were subjected to the pan hydroxyproline antibody. […]
washed with TBST 3 times, 5 minutes each and incubated with methylene blue solution (Sigma 03978) for loading determination.
15. Determining the effect of 6A/B on post-translational modifications in HEK293T cells To determine the effects of 6B on 5hmC and 5mC levels, and correspondingly any proteins responsible for addition or removal of these motifs, HEK293-T cells (ATCC CRL-1573) were plated into 6-well tissue culture plates (Corning) in DMEM (Corning) supplemented with 10% FBS (Corning) and 1X Antibiotic/Antimycin (Penicillin/Streptomycin/Fungiozone) (Cytiva HyClone) in an incubator held at 37 °C with 5% CO2. At 75% confluency, cells were treated with 200µM 6B or equivalent volume of DMSO and left to incubate at 37 °C. 24 hours later, the media was aspirated, washed with 1X PBS (Corning) and uplifted via trypsinization (Gibco TrypLE™ Express Enzyme). Cells were centrifuged at 3000xg for 3 minutes, washed with 1X PBS and centrifuged again at 3000xg for 3 minutes.
To study the effect on genomic DNA, genomic DNA was extracted with Fisher GeneJET gemoic DNA Purification Kit (Fisher K0721) following manufactures protocol. 1000ng of gDNA, as measured via nanodrop, was then subject to Dot Blot experiment. Briefly, 20µL of 1000ng gDNA was added to 40µL of 2M NaOH-50mM EDTA solution for 3 minutes at room temperature. 140µL of 10mM Tris/1mM EDTA pH 8.0 (TE) buffer was added and heated at 95 °C for 10 minutes.
Aliquots were then transferred directly to ice and 200µL of 2M Ammonium Acetate was added and left on ice for 5 minutes. Meanwhile, PVDF Imoblinin P (Merck Millipore Ltd.) membrane was cut to size, activated with MeOH for 30 seconds and incubated in TE buffer for 5 minutes while shaking. The membrane was then placed on a 96-well Bio-Dot microfiltration apparatus (Bio-Rad), washed with 400µL of TE buffer and the gDNA solution was applied and vacuum filtered. 400µL of TE buffer was then used to wash the membrane post gDNA binding. The membrane was then dried at 37 °C for 30 minutes followed by blocking in 5% milk concentrate (Bio-Rad) TBST solution for 1 hour at room temperature. Primary antibody 5-mC (Abcam […]
was applied and left to rotate overnight at 4 °C. The following day, the blots were washed 3 times, 5 minutes each with TBST and secondary antibody of goat-anti Rabbit antibody (CST 7074) in 5% milk/TBST at 1-10000 dilution was added for 1 hour at room temperature while shaking. The […]
To study the effect of histone methyl motifs (H3K4me3, H3K9me3, H3K27me3, H3K36me3, H3K79me3) and hydroxyproline motif, cell pellets were lysed with RIPA buffer with EDTA (Fisher J61529) supplemented with 1X protease inhibitor tablet (Roche). […] The protein concentration was determined using Bradford assay kit (BioRad Laboratories) with BSA as a […]

KDM8 (JMJD5) = biological target: T1, KDM8 (JMJD5) (Homo sapiens, UniProt Q8N371); assay: MALDI-TOF assay for JMJD5 arginine hydroxylation of peptide; assay type: biochemical; details: peptide substrate
T1 construct: we recombinantly expressed the catalytic domains of 12 wild type dioxygenases; made in house

ALKBH2 = biological target: T2, ALKBH2 (Homo sapiens, UniProt Q6NS38); assay: Dot blot-based assay for ALKBH2 on genomic DNA; assay type: biochemical; details: genomic DNA from HEK293T cells, 6 (µM): 100
T2 construct: we recombinantly expressed the catalytic domains of 12 wild type dioxygenases; 6xHis (N); made in house; host or cells: E. coli BL21 (DE3)

NO66 = biological target: T3, NO66 (Homo sapiens, UniProt Q9H6W3); assay: MALDI-based assay for C14orf169 (NO66) histidyl hydroxylation of peptide; assay type: biochemical; details: MALDI-TOF, peptide substrate
T3 construct: we recombinantly expressed the catalytic domains of 12 wild type dioxygenases; Tev His Flag (C); host or cells: E. coli BL21 (DE3)
Description: MALDI-based assay for C14orf169 (NO66) and MINA: To monitor the enzymatic activity of
C14orf169 and MINA recombinant proteins, previous methods were utilized.10-11 Briefly, 10 µM
each recombinant protein was incubated with 10 µM peptide substrate (NH2-
Ascorbic Acid, 100 µM Iron (II), 50mM HEPES pH 7.5, and 200 µM L-Leu NOG or equivalent
volume of water in 10 µL water. Aliquots were kept on ice for 10 minutes before addition of 200
µM 2OG or equivalent volume of water. After 30-60 minutes incubation at 37 °C, 1 µL sample and
1 µL S-DHB matrix were spotted on a MALDI plate and monitored with Bruker FlexControl in
the reflectron positive mode and analyzed on Bruker FlexAnalysis software. […]

T3 sequence (Q9H6W3 294-439 limits assumed): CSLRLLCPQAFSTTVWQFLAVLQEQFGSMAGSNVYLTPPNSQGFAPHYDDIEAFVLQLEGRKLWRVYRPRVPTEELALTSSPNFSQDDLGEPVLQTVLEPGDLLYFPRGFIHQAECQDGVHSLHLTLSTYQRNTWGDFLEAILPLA
T2 sequence (Q6NS38 152-257 limits assumed): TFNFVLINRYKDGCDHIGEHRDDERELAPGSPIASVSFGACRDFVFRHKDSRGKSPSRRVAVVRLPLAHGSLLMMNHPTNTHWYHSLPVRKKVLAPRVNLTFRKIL
T1 sequence (Q8N371 271-416 limits assumed): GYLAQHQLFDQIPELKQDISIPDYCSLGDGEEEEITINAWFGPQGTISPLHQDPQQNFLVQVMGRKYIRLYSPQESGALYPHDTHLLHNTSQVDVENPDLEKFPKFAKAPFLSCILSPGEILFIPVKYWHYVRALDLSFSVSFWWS

## CCCCCCCCOC(=O)C(=O)NC(CC(C)C)C(=O)O [6A, L-Leu octyl-ester NOG]
Endogenous 2OG enzymes; HEK293T cells, 400 μM 6A
  prolyl hydroxylation (pan hydroxyproline antibody): no change
Endogenous 2OG enzymes; HEK293T cells, 400 μM 6A, Western blot
  trimethylated K4, K9, K27, and K36 levels in histone H3: No change
Endogenous 2OG enzymes; HEK293T cells, dot blot assays
  5mC, 5hmC, and m6A modifications on DNA and RNA: no effect
Endogenous 2OG enzymes; HEK293T cells, dot-blot assay
  5mC and 5hmC marks on genomic DNA: no inhibitory effect
Endogenous 2OG enzymes; HEK293T cellular extracts, pan antibodies, Western blot
  dimethyllysine, trimethyllysine and hydroxyproline marks on cellular proteins: no inhibitory effect

## CC(C)CC(NC(=O)C(=O)O)C(=O)O (centres unmarked) [compound 6, N-oxalyl leucine]
KDM8 (JMJD5)
  inhibition of JMJD5: No inhibition
ALKBH2
  inhibition of ALKBH2: No inhibition
NO66
  inhibition of NO66: No inhibition
